Patent US9139593B2, “Azetidine compounds, compositions and methods of use” (Hoffman-La Roche Inc., priority 2011, dated 2015)

Target: Human Soluble Epoxide Hydrolase (Homo sapiens (Human), UniProt P34913)
Assay: Human Soluble Epoxide Hydrolase Enzyme Assay
Format: biochemical
Settings: resorufin epoxide substrate, fluorescence, room temperature, triplicates
Procedure: Human Soluble Epoxide Hydrolase Enzyme Assay
Test compounds (1.6 mM stock in DMSO) were diluted 3 fold in series in DMSO and 0.8 microliters per well were added into 384-well NBS microplates (Corning). Resorufin epoxide substrate (20 uM stock in DMSO) was diluted to 5 μM with Assay Buffer (25 mM bis-Tris-HCl, pH 7.0, 1 mM DTT and 0.2 mg/ml BSA) and 8 microliters per well were added to the microplates. Thirty two microliters per well of 3.6 nM soluble epoxide hydrolase in Assay Buffer was then added. The samples were incubated at room temperature and assay signals were monitored by reading excitation at 530 nm and emission fluorescence at 590 nm on a PlateVision (Zeiss) reader every 2 minutes for 8 times. The reaction rate, % inhibition and IC50 values were calculated using AssayAnalyzer and Condoseo software (Genedata AG, Basel, Switzerland).
All the experiments were done in triplicates.
The compounds of the present invention were tested for their capacity to inhibit sEH activity.

Human Soluble Epoxide Hydrolase, sequence (P34913 whole entry): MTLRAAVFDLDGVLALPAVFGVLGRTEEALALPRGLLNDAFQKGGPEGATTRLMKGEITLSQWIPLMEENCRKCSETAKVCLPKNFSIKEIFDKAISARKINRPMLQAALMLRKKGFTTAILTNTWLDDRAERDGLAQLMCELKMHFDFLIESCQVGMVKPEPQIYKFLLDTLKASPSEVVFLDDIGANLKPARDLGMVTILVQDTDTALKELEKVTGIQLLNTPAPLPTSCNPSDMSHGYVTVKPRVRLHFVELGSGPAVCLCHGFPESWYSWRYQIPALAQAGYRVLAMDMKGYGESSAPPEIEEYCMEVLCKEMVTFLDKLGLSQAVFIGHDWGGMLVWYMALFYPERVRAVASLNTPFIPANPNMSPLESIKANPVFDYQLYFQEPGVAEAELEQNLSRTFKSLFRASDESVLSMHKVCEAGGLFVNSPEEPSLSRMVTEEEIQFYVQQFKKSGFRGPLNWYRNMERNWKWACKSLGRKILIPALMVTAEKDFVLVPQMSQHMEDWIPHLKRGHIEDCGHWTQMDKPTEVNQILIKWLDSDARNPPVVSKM

SMILES | IC50 [µM]
O=C(NCc1ccc(Cl)cc1Cl)N1CC2CN(C(=O)c3ccccc3)C2C1 (racemic) [Example 18, rac-6-Benzoyl-3,6-diaza-bicyclo[3.2.0]heptane-3-carboxylic acid 2,4-dichloro-benzylamide] | 0.183
O=C(NCc1ccc(Cl)cc1Cl)N1CC2CN(S(=O)(=O)c3ccccc3)C2C1 (racemic) [Example 19, rac-6-Benzenesulfonyl-3,6-diaza-bicyclo[3.2.0]heptane-3-carboxylic acid 2,4-dichloro-benzylamide] | 0.238
O=C(NCc1ccc(Cl)cc1Cl)N1CC2(C1)CN(C(=O)c1ccccc1)C2 [Example 1, 6-Benzoyl-2,6-diaza-spiro[3.3]heptane-2-carboxylic acid 2,4-dichloro-benzylamide] | 0.241
O=C(O)c1ccc(N2CC3(CN(C(=O)NCc4ccc(Cl)cc4Cl)C3)C2)cc1 [Example 2, 4-[6-(2,4-Dichloro-benzylcarbamoyl)-2,6-diaza-spiro[3.3]hept-2-yl]-benzoic acid] | 1.26
O=C(NCc1ccc(Cl)cc1Cl)N1CC2(C1)CN(c1ncccn1)C2 [Example 4, 6-Pyrimidin-2-yl-2,6-diaza-spiro[3.3]heptane-2-carboxylic acid 2,4-dichloro-benzylamide] | 2.32
O=C(NCc1ccc(Cl)cc1Cl)N1CC2(CCN2S(=O)(=O)c2ccc(F)cc2)C1 [Example 5, N-(2,4-Dichlorobenzyl)-1-(4-fluorophenylsulfonyl)-1,6-diazaspiro[3.3]heptane-6-carboxamide] | 0.284
O=C(NCc1ccc(Cl)cc1Cl)N1CCC12CN(S(=O)(=O)c1ccc(Cl)cc1)C2 [Example 6, 6-(4-Chlorophenylsulfonyl)-N-(2,4-dichlorobenzyl)-1,6-diazaspiro[3.3]heptane-1-carboxamide] | 0.321
O=C(NCc1ccc(Cl)cc1Cl)N1CC2(CCN2c2ncccn2)C1 [Example 7, N-(2,4-Dichlorobenzyl)-1-(pyrimidin-2-yl)-1,6-diazaspiro[3.3]heptane-6-carboxamide] | 0.125
O=C(NCCCc1ccccc1)N1CC2(CCN2Cc2ccccc2)C1 [Example 8, Benzyl-1,6-diaza-spiro[3.3]heptane-6-carboxylic acid (3-phenyl-propyl)-amide] | 1.98
O=C(NCCCc1ccccc1)N1CC2(CCN2S(=O)(=O)c2ccc(Cl)cc2)C1 [Example 9, 1-(4-Chloro-benzenesulfonyl)-1,6-diaza-spiro[3.3]heptane-6-carboxylic acid (3-phenyl-propyl)-amide] | 1.99
O=C(NC12CC3CC(CC(C3)C1)C2)N1CC2(CCN2S(=O)(=O)c2ccc(Cl)cc2)C1 [Example 10, 1-(4-Chloro-benzenesulfonyl)-1,6-diaza-spiro[3.3]heptane-6-carboxylic acid adamantan-1-ylamide] | 2.55
O=C(NCc1ccc(Cl)cc1Cl)N1CC2(CCN2S(=O)(=O)c2ccc(Cl)cc2)C1 [Example 11, 1-(4-Chloro-benzenesulfonyl)-1,6-diaza-spiro[3.3]heptane-6-carboxylic acid 2,4-dichloro-benzylamide] | 0.64

Now from value to compound:

IC50 [µM] | SMILES
0.361 | O=C(NCc1ccc(Cl)cc1Cl)N1CC2CN(c3ncccn3)C2C1 (racemic) [Example 20, rac-6-Pyrimidin-2-yl-3,6-diaza-bicyclo[3.2.0]heptane-3-carboxylic acid 2,4-dichloro-benzylamide]
0.351 | O=C(O)c1ccc(N2CC3CN(C(=O)NCc4ccc(Cl)cc4Cl)CC32)cc1 (racemic) [Example 21, rac-4-[3-(2,4-Dichloro-benzylcarbamoyl)-3,6-diaza-bicyclo[3.2.0]hept-6-yl]-benzoic acid]
0.243 | O=C(NCc1ccccc1OC(F)(F)F)N1CC2(CCN2S(=O)(=O)c2ccc(Cl)cc2)C1 [Example 12, 1-(4-Chloro-benzenesulfonyl)-1,6-diaza-spiro[3.3]heptane-6-carboxylic acid 2-trifluoromethoxy-benzylamide]
0.476 | O=C(NCCCc1ccccc1)N1CC2(CCN2S(=O)(=O)c2ccccc2C(F)(F)F)C1 [Example 13, 1-(2-trifluoromethyl-benzenesulfonyl)-1,6-diaza-spiro[3.3]heptane-6-carboxylic acid (3-phenyl-propyl)-amide]
2.79 | O=C(NCCCc1ccccc1)[C@@H]1CCC12CN(S(=O)(=O)c1ccccc1Cl)C2 [Example 14, (R)-2-(2-Chlorophenylsulfonyl)-N-(3-phenylpropyl)-2-azaspiro[3.3]heptane-5-carboxamide]
0.288 | O=C(NCCCc1ccccc1)[C@H]1CCC12CN(S(=O)(=O)c1ccccc1Cl)C2 [Example 15, (S)-2-(2-Chlorophenylsulfonyl)-N-(3-phenylpropyl)-2-azaspiro[3.3]heptane-5-carboxamide]
2.69 | O=C(NCc1ccc(Cl)cc1Cl)N[C@@H]1CCC12CN(S(=O)(=O)c1ccc(Cl)cc1)C2 [Example 16, (R)-1-(2-(4-Chlorophenylsulfonyl)-2-azaspiro[3.3]heptan-5-yl)-3-(2,4-dichlorobenzyl)urea]
0.678 | O=C(NCc1ccc(Cl)cc1Cl)N[C@H]1CCC12CN(S(=O)(=O)c1ccc(Cl)cc1)C2 [Example 17, (S)-1-(2-(4-Chlorophenylsulfonyl)-2-azaspiro[3.3]heptan-5-yl)-3-(2,4-dichlorobenzyl)urea]
